Assay results taken from patent US11548903B2, “Bicyclic thiazine and oxazine derivatives as beta-secretase inhibitors and methods of use” (AMGEN INC., priority 2016, dated 2023).
Like-named read-outs stand apart in the source and are kept apart here.

What was measured:
human recombinant BACE1 = human recombinant BACE1 (Homo sapiens (Human), UniProt P56817); assay: In vitro enzymatic BACE1 FRET assay; assay type: biochemical; settings: read-out: BACE1 Enzyme IC50
Summary of the method: (§1)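 Ni-NTA-purified recombinant human BACE1 or BACE2 cleaved a 50 nM internally quenched peptide FRET substrate for one hour. Reactions were stopped with tris buffer raising pH to neutrality. Fluorescence was read at ex 488/em 590 nm.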

[1] = test system: BACE1 (Aβ40 from cells stably expressing Amyloid Precursor Protein); assay: In vitro BACE1 cell-based assay (Aβ40 in conditioned medium, HTRF)
Summary of the method: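 APP-stably expressing cells treated with compounds in 22-point dose response from 62.5 μM top concentration (0.625% final DMSO) for 24 h at 37° C in DMEM/10% FBS. Secreted Aβ40 in conditioned medium quantified by HTRF using ConfAb40 and biotinylated 6E10 with streptavidin-APC, 30-60 min at 23° C.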

human recombinant BACE2 = human recombinant BACE2 (Homo sapiens (Human), UniProt Q9Y5Z0); assay: In vitro enzymatic BACE2 FRET assay; assay type: biochemical; settings: read-out: BACE2 Enzyme IC50
Summary of the method: as §1

Recombinant CatD = Recombinant CatD (Homo sapiens (Human), UniProt P07339); assay: In vitro enzymatic Cathepsin D (CatD) FRET assay; assay type: biochemical; settings: read-out: Cat D Enzyme IC50
Summary of the method: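 Recombinant human CatD, expressed in CHO cells, was run in 0.05 M citrate pH 3.5 with 10% DMSO final and 5 mM CHAPS. Reactions were started with 20 nM quenched FRET peptide and incubated 1 h. Tris buffer was added to neutralize the pH before reading fluorescence at ex 500/em 580 nm.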

[2] = test system: β-secretase (Aβ peptide levels); assay: In vivo inhibition of β-secretase (Aβ reduction in rat CSF and brain)
Text: In vivo Inhibition of β-Secretase
Several animal models, including mouse, rat, dog, and monkey, may be used to screen for inhibition of β-secretase activity in vivo following administration of a test compound. […] Animals to be used in this experiment can be wild type, transgenic, or gene knockout animals. For example, the Tg2576 mouse model, prepared and conducted as described in Hsiao et al., Science 274:99-102 (1996), and other non-transgenic or gene knockout animals are useful to analyze in vivo inhibition of Aβ peptide production in the presence of test compounds.
Generally, 2 to 18 month old Tg2576 mice, gene knockout mice or non-transgenic animals are administered test compounds formulated in vehicles, such as cyclodextran, phosphate buffers, hydroxypropyl methylcellulose or other suitable vehicles. One to twenty-four hours following the administration of compound, animals are sacrificed, and brains as well as cerebrospinal fluid (CSF) and plasma are removed for analysis of Aβ levels and test compound concentrations (Dovey et al., J. Neurochem., 76(1):173-181 (2001)) Beginning at time 0, animals are administered by oral gavage, or other means of delivery such as intravenous injection, an inhibitory test compound of up to 100 mg/kg in a standard, conventional formulation, such as 2% hydroxypropyl methylcellulose, 1% Tween80. A separate group of animals receive 2% hydroxypropyl methylcellulose, 1% Tween80 alone, containing no test compound, and serve as a vehicle-control group. At the end of the test period, animals are sacrificed and brain tissues, plasma or cerebrospinal fluid are collected. Brains are either homogenized in 10 volumes (w/v) of 0.2% diethylamine (DEA) in 50 mM NaCl (Best et al., J. Pharmacol. Exp. Ther. 313(2):902-908 (2005)), or in 10 volumes of 0.5% TritonX-100 in Tris-buffered saline (pH at about 7.6). Homogenates are centrifuged at 355,000 g, 4° C. for 30 minutes. CSF or brain supernatants are then analyzed for the presence of Aβ by specific sandwich ELISA assays based on ECL (Electrochemiluminescence) technology. For example, rat Aβ40 is measured using biotinylated-4G8 (Signet) as a capture antibody and Fab40 (an in-house antibody specific to the C-terminal of Aβ40) as a detection antibody. For example, 4 hours after administration of 30 mg/kg oral dose of the test compound in 2% hydroxypropyl methylcellulose, 1% Tween80 (pH2.2) to 200 g male Sprague Dawley rats, Aβ peptide levels are measured for reduction by X % and Y % in cerebrospinal fluid and brain, respectively, when compared to the levels measured in the vehicle-treated or control mice. Alternatively, the antibody sold with the V-PLEX abeta40 Peptide (4G8) Kit, commercially available from Meso Scale Diagnostics (MSD), Rockville, Md. 20850-3173 (Catalog NO. K150SJE-1) may be used in this assay.
The results presented in Table 3 were obtained using certain compounds described herein in the in vivo protocol described above.

[3] = test system: Aβ peptide levels in the CSF and plasma; settings: nonhuman primates; cited from earlier work
Aβ peptide in CSF = settings: oral dose of 95 mg once daily; cited from earlier work
[4] = test system: pigment epithelium of the rat's eye; settings: higher compound dose given for three months; cited from earlier work
[5] = test system: CSF Aβ peptide concentrations; settings: cited from earlier work
[6] = Aβ40, 24 h incubation, read-out: BACE1 Cell IC50

Chain of Recombinant CatD (P07339 65-412): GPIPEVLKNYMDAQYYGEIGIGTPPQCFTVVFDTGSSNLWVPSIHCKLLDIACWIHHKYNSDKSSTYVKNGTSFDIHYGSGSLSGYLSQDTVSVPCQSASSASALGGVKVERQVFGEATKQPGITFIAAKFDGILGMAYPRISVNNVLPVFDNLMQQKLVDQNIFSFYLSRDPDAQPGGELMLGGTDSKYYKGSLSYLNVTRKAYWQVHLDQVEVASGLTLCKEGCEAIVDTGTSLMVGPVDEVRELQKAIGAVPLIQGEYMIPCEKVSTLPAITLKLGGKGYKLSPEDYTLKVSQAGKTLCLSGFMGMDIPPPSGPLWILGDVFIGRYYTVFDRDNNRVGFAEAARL
Chain of human recombinant BACE1 (P56817 46-501): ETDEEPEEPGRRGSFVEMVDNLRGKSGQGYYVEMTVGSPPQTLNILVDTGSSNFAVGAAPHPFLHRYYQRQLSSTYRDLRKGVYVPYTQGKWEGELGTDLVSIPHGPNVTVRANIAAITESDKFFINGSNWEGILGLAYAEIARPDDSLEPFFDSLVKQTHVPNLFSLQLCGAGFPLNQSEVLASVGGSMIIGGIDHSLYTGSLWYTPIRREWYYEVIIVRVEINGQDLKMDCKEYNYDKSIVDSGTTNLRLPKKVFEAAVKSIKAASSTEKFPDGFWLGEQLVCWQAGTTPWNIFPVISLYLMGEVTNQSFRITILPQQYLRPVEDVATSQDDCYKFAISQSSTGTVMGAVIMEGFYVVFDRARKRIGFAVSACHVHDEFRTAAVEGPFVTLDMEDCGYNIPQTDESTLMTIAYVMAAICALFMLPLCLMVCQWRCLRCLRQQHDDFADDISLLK
Chain of human recombinant BACE2 (Q9Y5Z0 63-518): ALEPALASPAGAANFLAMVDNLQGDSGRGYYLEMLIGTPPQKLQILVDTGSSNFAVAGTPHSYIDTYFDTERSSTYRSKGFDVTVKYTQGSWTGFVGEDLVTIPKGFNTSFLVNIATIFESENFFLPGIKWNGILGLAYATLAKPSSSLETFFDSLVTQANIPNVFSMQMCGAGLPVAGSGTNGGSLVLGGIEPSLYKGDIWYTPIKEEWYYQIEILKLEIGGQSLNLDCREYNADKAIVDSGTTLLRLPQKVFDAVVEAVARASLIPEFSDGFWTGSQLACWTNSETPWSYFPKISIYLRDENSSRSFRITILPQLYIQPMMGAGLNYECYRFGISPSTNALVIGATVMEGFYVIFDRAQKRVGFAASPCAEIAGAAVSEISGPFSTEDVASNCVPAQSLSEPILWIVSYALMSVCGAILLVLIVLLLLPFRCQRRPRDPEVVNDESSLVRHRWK

| IC50 (human recombinant BACE1) [nM] | IC50 (human recombinant BACE2) [nM] | IC50 (Recombinant CatD) [nM] | Structure (SMILES) | % Aβ reduction in rat CSF at 10 mpk [2] [%] | % Aβ reduction in rat brain at 10 mpk [2] [%] | other results |
| --- | --- | --- | --- | --- | --- | --- |
| 7.45 | 394 | 125000 | C#CCOc1cnc(/C(F)=C/c2ccc(F)c([C@]34CN(C(C)=O)C[C@H]3CSC(N)=N4)c2)cn1 [Example 118, 1-((4aR,7aS)-2-amino-7a-(2-fluoro-5-((Z)-2-fluoro-2-(5-(prop-2-yn-1-yloxy)pyrazin-2-yl)vinyl)phenyl)-4a,5,7,7a-tetrahydropyrrolo[3,4-d][1,3]thiazin-6(4H)-yl)ethanone] | 43 | 43 | IC50 [1, 6]: 0.0198 µM |
| 20.1 | 334 | 292000 | N#Cc1ccc(/C(F)=C/c2ccc(F)c([C@]34CO[C@H](C(F)(F)F)[C@H]3CSC(N)=N4)c2)nc1 [Example 126, 6-((Z)-2-(3-((4aS,5S,7aS)-2-amino-5-(trifluoromethyl)-4a,5,7,7a-tetrahydro-4H-furo[3,4-d][1,3]thiazin-7a-yl)-4-fluorophenyl)-1-fluorovinyl)nicotinonitrile] | 83 | 80 | IC50 [1, 6]: 0.00574 µM |
|  |  |  | C[C@H]1OC[C@]2(c3cc(NC(=O)c4cnc(C(F)F)cn4)ccc3F)N=C(N)SC[C@H]12 [Example E2609] |  |  | Aβ peptide levels in the CSF and plasma [3]: significant reduction in Aβ peptide levels in the CSF and plasma |
|  |  |  | C[C@@]1(c2cc(NC(=O)c3ccc(C#N)cn3)ccc2F)C=CSC(N)=N1 [JNJ-54861911] |  |  | Aβ peptide reduction in CSF (Aβ peptide in CSF): up to 95% |
|  |  |  | C[C@@]1(c2cc(-c3cncnc3)c(F)cc2F)CCSC(N)=N1 [LY 2811376] |  |  | eye toxicity finding [4]: damaged the pigment epithelium of the rat's eye |
|  |  |  | CN1C(=N)N[C@](C)(c2cc(NC(=O)c3ccc(F)cn3)ccc2F)CS1(=O)=O [MK-8931] |  |  | CSF Aβ peptide concentrations ([5]; human, in vivo): significantly reduced CSF Aβ peptide concentrations in a sustained and dose-dependent manner; safety profile ([5]; phase I clinical trials): excellent safety profile with no immediately noticeable side effects |

| Structure (SMILES) | IC50 (human recombinant BACE1) [nM] | IC50 (human recombinant BACE2) [nM] | IC50 (Recombinant CatD) [nM] | % Aβ reduction in rat CSF at 10 mpk [2] [%] | % Aβ reduction in rat brain at 10 mpk [2] [%] | other results |
| --- | --- | --- | --- | --- | --- | --- |
| N#Cc1cnc(/C(F)=C/c2ccc(F)c([C@]34CO[C@H](C(F)(F)F)[C@H]3CSC(N)=N4)c2)cn1 [Example 128, 5-((Z)-2-(3-((4aS,5S,7aS)-2-amino-5-(trifluoromethyl)-4a,5,7,7a-tetrahydro-4H-furo[3,4-d][1,3]thiazin-7a-yl)-4-fluorophenyl)-1-fluorovinyl)pyrazine-2-carbonitrile] | 15.3 | 341 | 418000 | 79 | 77 | IC50 ([1]; 24 h, read-out: BACE1 Cell IC50 (μM)): 0.00364 µM |
